These are literature values, as cited in PMC4562162 (CPT: Pharmacometrics & Systems Pharmacology, 2015).

This data set deals with CETP.

Molecules are shown by their SMILES.

For `CCC(CC)CC1(C(=O)Nc2ccccc2SC(=O)C(C)C)CCCCC1` [Dalcetrapib], the “effect on LDL-C levels” value was “minimal effects on LDL-C levels”.
